Laboratory results reported in patent US10188603B2, “Topical systems and methods for treating sexual dysfunction” (priority 2013, dated 2019).

What was measured:
[1] = system: micro-capillary blood flow to skin; test: Laser Doppler capillary blood flow in humans, 10,000 ppm NO in closed chamber (Example 5); type: in vivo, human; settings: applied to the skin at 1/10% in alcohol
Text: The formulation used in these studies contained nitric oxide dispersed in a lipid matrix. […] Nitric oxide is a very rapid acting molecule, and these studies used a system that employed laser Doppler with a covered chamber. The formulation was placed into the chamber and then attached to the skin by an adhesive layer on the covering. This provided a stable measuring device as determined by multiple normal evaluations of the capillary blood flow without treatment of nitric oxide.
A known positive control, methyl nicotinate, was applied to the skin at a concentration of 1/10% in alcohol. […] The vascular dynamics are such that when the blood vessels dilate physical parameters follow Bernoulli's law. This states that as one increases the diameter of a tube containing a liquid to flow will increase but the pressure and the speed of the liquid will decrease. The laser Doppler device accurately measured these parameters.
The test product was labeled as 10,000 ppm NO (nitric oxide). The study participants had 100 mg of the test product applied in a closed Hilltop chamber on the forearm. […]
A Moor Instruments DRT4 Laser Doppler Blood Flow Monitor (Devon, England) was used in these studies. The laser Doppler technique measured blood flow in the microcapillaries of the skin that are close to the skin surface and the blood flow in underlying arterioles and venules that help to regulate skin temperature. […]

[2] = system: capillary circulation of the skin; test: Laser Doppler circulation in five human subjects (Example 8); type: in vivo; settings: positive control formulation containing 0.1% methyl nicotinate
Text: This example illustrates delivery of nitric oxide formulations to five human subjects, using procedures and formulations similar to those discussed in Example 5. Each person served as their own control for the testing. A Moor Instruments Laser Doppler was used to determine circulation. […] The formulations used produce positive, almost immediate results when applied to the skin which, in these studies, was manifested by vasodilatation of the cutaneous vascular system.
For each subject, the following creams were applied: a negative control formulation (containing no NO), 0.010 gram of a 10,000 ppm NO formulation, 0.020 gram of a 10,000 ppm NO formulation, and a positive control formulation containing 0.1% methyl nicotinate. The formulations were prepared using procedures similar to those discussed in Example 1.

SMILES: COC(=O)c1cccnc1 [methyl nicotinate]
- laser Doppler response of positive control [1]: rapid response typical of the vasodilator
- vasodilatation (laser Doppler) [2]: vasodilatation was observed
